Measurements: patent publication US20200261421A1, “HETEROCYCLIC COMPOUNDS AS HIV PROTEASE INHIBITORS” (Merck Sharp & Dohme Corp., priority 2016, published 2020)

Biological target: T1, wild-type HIV-1 protease (Human immunodeficiency virus type 1 group M subtype B, UniProt P04585)
T1 construct: Escherichia coli expressed wild-type HIV-1 protease protein; made in house; host or cells: Escherichia coli
Assay: Assay for Inhibition of Microbial Expressed HIV Protease
Type: biochemical
Details: Escherichia coli expressed wild-type HIV-1 protease, peptide substrate cleavage; mean of at least two independent experiments
Experimental: Inhibition of Escherichia coli expressed wild-type HIV-1 protease protein was carried out with a peptide substrate [Val-Ser-Gln-Asn-Wnaphtyl)Ala-Pro-Ile-Val]. The inhibitor compound was preincubated with HIV-1 protease enzyme in assay buffer (50 mM sodium acetate, pH 5.5, 100 mM NaCl, and 0.1% BSA) for 30 minutes at room temperature. Peptide substrate was added to 400 μM in a total volume of 20 μL containing 20 pM HIV-1 protease (final) after which the reaction was incubated for 1 hour at 30° C. The reaction was quenched by the addition of formic acid and HIV protease inhibitor indinavir to 0.012% and 150 nM final concentrations, respectively. Product formation was determined after separation of product and substrate on a ZORBAX Eclipse XDB-C18 column (Aligent Technologies, Santa Clara, Calif., USA) connected to an API 4000™ mass spectrometer (AB Sciex, Pte. Ltd., Concord Ontario, Canada) with multiple reaction monitoring (transitions were 644.5/428.9 and 615.4/422.2 (M1/M3) for product and indinavir respectively). The extent of inhibition of the reaction was determined from the peak area of the products. Analysis of the products, independently synthesized, provided quantitation standards and confirmation of the product composition. […] Ic50's refer to the 50% inhibition of the cleavage of a peptide substrate by hiv protease.
Data shown in the table reflects the mean of at least two independent experiments.

| Structure (SMILES) | IC50 |
| --- | --- |
| CN(Cc1ccc(Cl)cc1)C(=O)c1ccnc(CN2C(=N)NC(c3ccc(F)cc3)(c3ccc(F)cc3)C2=O)c1 [Example 89, 2-{[4,4-bis(4-fluorophenyl)-2-imino-5-oxoimidazolidin-1-yl]methyl}-N-(4-chlorobenzyl)-N-methylpyridine-4-carboxamide] | 18.9 nM |
| CN(Cc1ccc(Cl)cc1)C(=O)c1cncc(CN2C(=N)NC(c3ccc(F)cc3)(c3ccc(F)cc3)C2=O)c1 [Example 81, 5-{[4,4-bis(4-fluorophenyl)-2-imino-5-oxoimidazolidin-1-yl]methyl}-N-(4-chlorobenzyl)-N-methylpyridine-3-carboxamide] | 22.7 nM |
| CC(C)CC1(c2ccccc2)NC(=N)N(Cc2ccc(Cl)c(C(=O)NCc3ccc(C#N)cc3)c2)C1=O (stereo not shown) [Example 71, 2-chloro-N-(4-cyanobenzyl)-5-{[2-imino-4-(2-methylpropyl)-5-oxo-4-phenylimidazolidin-1-yl]methyl}benzamide] | 8.19 nM |
| CN(Cc1ccccc1C(F)(F)F)C(=O)c1cccc(CN2C(=N)NC(c3ccc(F)cc3)(c3ccc(F)cc3)C2=O)c1 [Example 46, 3-{[4,4-bis(4-fluorophenyl)-2-imino-5-oxoimidazolidin-1-yl]methyl}-N-methyl-N-[2-(trifluoromethyl)-benzyl]benzamide] | 31.1 nM |
| CC(C)CCC1(c2ccc(F)cc2)NC(=N)N(Cc2cccc(C(=O)N(C)Cc3ccc(C#N)cc3)c2)C1=O (stereo not shown) [Example 35, N-(4-cyanobenzyl)-3-{[4-(4-fluorophenyl)-2-imino-4-(3-methylbutyl)-5-oxoimidazolidin-1-yl]methyl}-N-methylbenzamide] | 20.5 nM |
| [2H]C([2H])([2H])N(C(=O)c1cccc(CN2C(=N)NC(c3ccc(F)cc3)(c3ccc(F)cc3)C2=O)c1)[C@H](C)c1ccc(F)cc1 [Example 50, 3-{[4,4-bis(4-fluorophenyl)-2-imino-5-oxoimidazolidin-1-yl]methyl}-N-[(1R)-1-(4-fluorophenyl)ethyl]-N(~2~H_3_)methylbenzamide] | 45.1 nM |
| CCCC1(c2ccccc2)NC(=N)N(Cc2cccc(C(=O)N(C)Cc3ccc(Cl)cc3)c2)C1=O (stereo not shown) [Example 27, N-(4-chlorobenzyl)-3-[(2-imino-5-oxo-4-phenyl-4-propylimidazolidin-1-yl)methyl]-N-methylbenzamide] | 16.9 nM |
| COc1ccccc1CN(C)C(=O)c1cccc(CN2C(=N)NC(c3ccc(F)cc3)(c3ccc(F)cc3)C2=O)c1 [Example 61, 3-{[4,4-bis(4-fluorophenyl)-2-imino-5-oxoimidazolidin-1-yl]methyl}-N-(2-methoxybenzyl)-N-methylbenzamide] | 76.7 nM |
| CCN(Cc1ccc(F)cc1)C(=O)c1cccc(CN2C(=N)NC(c3ccc(F)cc3)(c3ccc(F)cc3)C2=O)c1 [Example 42, 3-{[4,4-bis(4-fluorophenyl)-2-imino-5-oxoimidazolidin-1-yl]methyl}-N-ethyl-N-(4-fluorobenzyl)benzamide] | 28.6 nM |
| CC(C)CCC1(c2ccccc2)NC(=N)N(Cc2cccc(C(=O)N(C)Cc3ccc(F)cc3)c2)C1=O (stereo not shown) [Example 17, N-(4-fluorobenzyl)-3-{[2-imino-4-(3-methylbutyl)-5-oxo-4-phenylimidazolidin-1-yl]methyl}-N-methylbenzamide] | 10.3 nM |
| N=C1NC(c2ccccc2)(c2ccccc2)C(=O)N1Cc1ccc(C(F)(F)F)c(C(=O)NCc2ccc(OC(F)F)cc2)c1 [Example 12, N-[4-(difluoromethoxy)benzyl]-5-[(2-imino-5-oxo-4,4-diphenylimidazolidin-1-yl)methyl]-2-(trifluoromethyl)benzamide] | 94.1 nM |
| CN(Cc1ccc(Cl)nc1)C(=O)c1cccc(CN2C(=N)NC(c3ccc(F)cc3)(c3ccc(F)cc3)C2=O)c1 [Example 18, 3-{[4,4-bis(4-fluorophenyl)-2-imino-5-oxoimidazolidin-1-yl]methyl}-N-[(6-chloropyridin-3-yl)methyl]-N-methylbenzamide] | 10.3 nM |
| CN(Cc1ccc(Cl)cc1)C(=O)c1cccc(CN2C(=N)NC(c3ccc(F)cc3)(c3ccc(F)cc3)C2=O)c1 [Example 30, 3-{[4,4-bis(4-fluorophenyl)-2-imino-5-oxoimidazolidin-1-yl]methyl}-N-(4-chlorobenzyl)-N-methylbenzamide] | 17.9 nM |
| CN(Cc1ccc(Cl)cc1)C(=O)c1ccnc(CN2C(=N)NC(c3ccccc3)(c3ccccc3)C2=O)c1 [Example 86, N-(4-chlorobenzyl)-2-[(2-imino-5-oxo-4,4-diphenylimidazolidin-1-yl)methyl]-N-methylpyridine-4-carboxamide] | 7.72 nM |
| CC(C)CC1(c2cccc(F)c2)NC(=N)N(Cc2cccc(C(=O)N(C)Cc3ccc(C#N)cc3)c2)C1=O (stereo not shown) [Example 69, N-(4-cyanobenzyl)-3-{[4-(3-fluorophenyl)-2-imino-4-(2-methylpropyl)-5-oxoimidazolidin-1-yl]methyl}-N-methylbenzamide] | 97.1 nM |
| CN(Cc1ccc(Cl)cc1)C(=O)c1cccc(CN2C(=N)NC(c3ccc(F)cc3)(c3cccc(Br)c3)C2=O)c1 (stereo not shown) [Example 40, 3-{[4-(3-bromophenyl)-4-(4-fluorophenyl)-2-imino-5-oxoimidazolidin-1-yl]methyl}-N-(4-chlorobenzyl)-N-methylbenzamide] | 25.9 nM |
| CN(Cc1ccc(Cl)cc1)C(=O)c1cccc(CN2C(=N)NC(c3ccccc3)(c3ccccc3)C2=O)c1 [Example 36, N-(4-chlorobenzyl)-3-[(2-imino-5-oxo-4,4-diphenylimidazolidin-1-yl)methyl]-N-methylbenzamide] | 21.7 nM |
| CC(C)CCC1(c2ccccc2)NC(=N)N(Cc2cncc(C(=O)N(C)Cc3ccc(C#N)cc3)c2)C1=O (stereo not shown) [Example 83, N-(4-cyanobenzyl)-5-{[2-imino-4-(3-methylbutyl)-5-oxo-4-phenylimidazolidin-1-yl]methyl}-N-methylpyridine-3-carboxamide] | 50.4 nM |
| CC(C)CC1(CC(C)C)NC(=N)N([C@H](C)c2cccc(C(=O)N(C)Cc3ccc(F)cc3)c2)C1=O [Example 70, N-(4-fluorobenzyl)-3-{(1R)-1-[2-imino-4,4-bis(2-methylpropyl)-5_ oxoimidazolidin-1-yl]ethyl}-N-methylbenzamide] | 99.1 nM |
| CN(Cc1ccc(F)cc1)C(=O)c1cncc(CN2C(=N)NC(c3ccc(F)cc3)(c3ccc(F)cc3)C2=O)c1 [Example 80, 5-{[4,4-bis(4-fluorophenyl)-2-imino-5-oxoimidazolidin-1-yl]methyl}-N-(4-fluorobenzyl)-N-methylpyridine-3-carboxamide] | 15.4 nM |
| CC(C)C[C@@]1(c2ccccc2)NC(=N)N([C@H](C)c2cccc(C(=O)N(C)Cc3ccc(F)cc3)c2)C1=O [Example 55, N-(4-fluorobenzyl)-3-((R)-1-((S)-2-imino-4-isobutyl-5-oxo-4-phenylimidazolidin-1-yl)ethyl)-N-methylbenzamide] | 52.9 nM |
| CC(C)CC1(c2ccccc2)NC(=N)N(Cc2cc(C(=O)N(C)Cc3ccc(C#N)cc3)ccn2)C1=O (stereo not shown) [Example 87, N-(4-cyanobenzyl)-2-{[2-imino-4-(2-methylpropyl)-5-oxo-4-phenylimidazolidin-1-yl]methyl}-N-methylpyridine-4-carboxamide] | 15.5 nM |
| CCCC1(c2ccccc2)NC(=N)N(Cc2cccc(C(=O)N(C)Cc3ccc(Cl)cn3)c2)C1=O (stereo not shown) [Example 47, N-[(5-chloropyridin-2-yl)methyl]-3-[(2-imino-5-oxo-4-phenyl-4-propylimidazolidin-1-yl)methyl]-N-methylbenzamide] | 33.3 nM |
| CC(C)CC1(c2ccccc2)NC(=N)N(Cc2ccc(C(F)(F)F)c(C(=O)NCc3ncccn3)c2)C1=O (stereo not shown) [Example 11, 5-{[2-imino-4-(2-methylpropyl)-5-oxo-4-phenylimidazolidin-1-yl]methyl}-N-(pyrimidin-2-ylmethyl)-2-(trifluoromethyl)-benzamide] | 92.1 nM |
| N=C1NC(c2ccccc2)(c2ccccc2)C(=O)N1Cc1ccc(C(F)(F)F)c(C(=O)NCc2cccc(OC(F)F)c2)c1 [Example 9, N-[3-(difluoromethoxy)benzyl]-5-[(2-imino-5-oxo-4,4-diphenylimidazolidin-1-yl)methyl]-2-(trifluoromethyl)benzamide] | 68.4 nM |
| COc1ccc(CN2C(=N)NC(c3ccccc3)(c3ccccc3)C2=O)cc1C(=O)N(C)[C@H](C)c1ccccc1 [Example 77, 5-[(2-imino-5-oxo-4,4-diphenylimidazolidin-1-yl)methyl]-2-methoxy-N-methyl-N-[(1R)-1-phenylethyl]benzamide] | 43.4 nM |
| CN(Cc1ccc(Cl)cc1)C(=O)c1cccc(CN2C(=N)NC(c3ccc(F)cc3)(c3cccc(-c4cccc(C#N)c4)c3)C2=O)c1 (stereo not shown) [Example 64, N-(4-chlorobenzyl)-3-{[4-(3'-cyanobiphenyl-3-yl)-4-(4-fluorophenyl)-2-imino-5-oxoimidazolidin-1-yl]methyl}-N-methylbenzamide] | 86.9 nM |
| CC(C)CC[C@]1(c2ccccc2)NC(=N)N([C@H](C)c2cccc(C(=O)N(C)Cc3ccc(F)cc3)c2)C1=O [Example 15, N-(4-fluorobenzyl)-3-{(1R)-1-[2-imino-4-(3-methylbutyl)-5-oxo-4-phenylimidazolidin-1-yl]ethyl}-N-methylbenzamide] | 9.11 nM |
